Reference: patent US11684614B2, “Formulations of hydroxypyridonate actinide/lanthanide decorporation agents” (priority 2017, dated 2023)
“And” between values parts separate entries of the source, which are not always exact repeats. Equal entries are not always repeated.

Test: Repeated-treatment efficacy for removing an intravenous dose of 238Pu (excretion, tissue retention, clinical observations), female and male arms
Format: in vivo, Swiss-Webster mice
Settings: for % Recovered Dose - Feces per Day: male mice, listed as 3,4,3-LI(1,2-HOPO)
Method: The objective of this study was to characterize the efficacy of 3,4,3-L1(1,2-HOPO) at enhancing elimination from an internal plutonium burden in female and male Swiss-Webster mice administered a soluble citrate complex of ^238Pu and treated multiple times, starting at 24 hours after the exposure. Efficacy was evaluated by comparing the tissue contents, urinary and fecal excretions of ^238Pu in treated animals versus untreated animals.
The medical countermeasure 3,4,3-L1(1,2-HOPO) was administered parenterally (ip) or orally (po) via consecutive injections or gavages (six daily or twelve twice daily) starting at 24 hours post contamination at the following four selected doses: 30 μmol/kg ip, 150 μmol/kg po, 300 μmol/kg po, and 600 μmol/kg po (equivalent to respective approximate human doses range of […], using the accepted conversion system of mouse doses into human equivalent doses—HED—based on body surface area). Oral doses also included the permeability enhancer selected during formulation development work.
• Challenge isotope: ^238Pu • Challenge dose: 25 nCi (i.e., approximately 0.8 μCi/kg) • Route of contamination: Intravenous (iv) tail-vein • Route of treatment: Intraperitoneal Injection (ip) or Oral (po) • Frequency of treatment: Multiple (once- or twice-daily for 6 days) doses, starting 24 hr postcontamination • Treatment dose calculation: Dose calculations (mg/kg or μmol/kg) for the decorporation agent were based on the individual body weight measured after contamination. • Study Duration: 11 days, in-life
c. […] Test article and control dose formulations were prepared within 1 day of dose administration, by weighing out the appropriate amount of test article, dispersing in vehicle. For ip solutions, the test article was used alone, while for oral suspensions, a mixture of test article and excipient (90:10, w:w) was used. The pH was adjusted to 7.0-7.4 for ip administration and 5.0-5.5 for oral administration with sterile NaOH. Dose formulations were prepared at room temperature and filter-sterilized. • Storage: 2-8° C.; refrigerated; protected from light. • Characterization: The concentration of each test article formulation was verified by high-performance liquid chromatography-mass spectrometry. • Test Article Handling: Test, reference, and control article formulations were handled with the use of eye protection, gloves, and a protective laboratory coat. • Correct Dose Assurance: The test article was weighed with calibrated balances. The administration of each dose formulation was properly documented, and the amount administered to each animal recorded.
e. Experimental Procedures (In-Life Evaluations and Euthanasia) • Contamination: Single administration by intravenous (iv) tail-vein injection (0.2 mL injection volume) under isoflurane anesthesia. Three standard 0.2 mL injections were performed into polyethylene bottles and pre-loaded with aliquots of concentrated nitric acid on each injection day. Six female and six male mice were culled for necropsy 1 hr post-contamination and were used as standards. A11 standards were processed and counted together with the final samples to allow verification of the contamination dose. • Dose Administration: Single administration by intraperitoneal injection (ip) or oral gavage (po) under isoflurane anesthesia. • Mortality/Morbidity: Assessed at least once daily. • Clinical Observations: Recorded once daily (4 hr post-dose on day of treatment), or more often as clinical signs warranted. […]

In the case of `O=C(NCCCN(CCCCN(CCCNC(=O)c1cccc(=O)n1O)C(=O)c1cccc(=O)n1O)C(=O)c1cccc(=O)n1O)c1cccc(=O)n1O` [3,4,3-L1(1,2-HOPO)], the “% Recovered Dose - Feces per Day” value (group I, feces day 1, Day 11 necropsy) is reported as 9.44% and 11.73% and 10.15% and 5.92% and 9.00% and 6.11% and 8.55% and 9.19%, the “% Recovered Dose - Feces per Day” value (group I, feces day 3, Day 11 necropsy) is reported as 7.33% and 7.00% and 5.92% and 6.28% and 9.54% and 7.12% and 7.60% and 4.73% and the “% Recovered Dose - Feces per Day” value (group I, feces day 4, Day 11 necropsy) is reported as 4.73% and 4.29% and 4.45% and 3.39% and 5.21% and 4.16% and 3.65% and 3.13%. For the same compound, the “% Recovered Dose - Feces per Day” value (group I, feces day 5, Day 11 necropsy) was 2.15% and 1.67% and 2.13% and 2.90% and 1.73% and 2.06% and 1.56% and 2.26%, the “% Recovered Dose - Feces per Day” value (group I, feces day 6, Day 11 necropsy) was 1.96% and 1.64% and 1.89% and 2.15% and 2.00% and 1.56% and 1.92% and 1.66% and the “% Recovered Dose - Feces per Day” value (group I, feces day 7, Day 11 necropsy) was 1.48% and 2.52% and 0.83% and 1.51% and 0.94% and 1.29% and 1.15% and 1.02%. For the same compound, the “% Recovered Dose - Feces per Day” value (group I, feces day 8, Day 11 necropsy) was 0.86% and 0.84% and 0.55% and 0.76% and 1.22% and 0.87%, the “% Recovered Dose - Feces per Day” value (group I, feces day 9, Day 11 necropsy) was 0.53% and 0.71% and 0.43% and 0.64% and 0.57% and 0.47% and 0.49% and the “% Recovered Dose - Feces per Day” value (group I, feces day 10, Day 11 necropsy) was 0.46% and 0.52% and 0.43% and 0.45% and 0.40% and 0.47% and 0.36%. The “% Recovered Dose - Feces per Day” value (group I, feces day 11, Day 11 necropsy) was 0.47% and 0.38% and 0.37% and 0.43% and 0.48% and 0.44% and 0.50%, the “% Recovered Dose - Feces per Day” value (group L, feces day 2, Day 11 necropsy) was 9.49% and 10.37% and 11.59% and 15.06% and 13.00% and 13.15% and 16.38% and 8.84% and the “% Recovered Dose - Feces per Day” value (group L, feces day 3, Day 11 necropsy) was 2.02% and 3.23% and 3.48% and 4.47% and 2.87% and 3.37% and 4.43% and 2.71%. The “% Recovered Dose - Feces per Day” value (group L, feces day 4, Day 11 necropsy) was 1.98% and 2.69% and 3.71% and 6.81% and 3.67% and 4.04% and 3.55% and 3.76%, the “% Recovered Dose - Feces per Day” value (group L, feces day 5, Day 11 necropsy) was 1.04% and 1.47% and 2.57% and 2.42% and 1.75% and 1.82% and 2.26% and 1.72% and the “% Recovered Dose - Feces per Day” value (group L, feces day 6, Day 11 necropsy) was 3.32% and 1.94% and 2.97% and 2.78% and 2.36% and 3.15% and 2.15% and 2.74%. For the same compound, the “% Recovered Dose - Feces per Day” value (group L, feces day 7, Day 11 necropsy) was 1.56% and 1.72% and 1.53% and 1.45% and 2.10% and 1.44% and 1.80% and 1.29%, the “% Recovered Dose - Feces per Day” value (group L, feces day 8, Day 11 necropsy) was 1.03% and 1.27% and 1.54% and 1.58% and 1.33% and 1.26% and 1.23% and 0.92% and the “% Recovered Dose - Feces per Day” value (group L, feces day 9, Day 11 necropsy) was 0.88% and 0.94% and 0.96% and 0.57% and 1.17% and 1.08% and 0.78%. The “% Recovered Dose - Feces per Day” value (group L, feces day 10, Day 11 necropsy) was 0.60% and 0.98% and 0.96% and 0.65% and 0.99% and 1.01% and 1.02% and 0.90%, the “% Recovered Dose - Feces per Day” value (group L, feces day 11, Day 11 necropsy) was 0.63% and 0.89% and 0.79% and 0.66% and 0.87% and 0.84% and the “% Recovered Dose - Feces per Day” value (group M, feces day 2, Day 11 necropsy) was 16.84% and 15.20% and 15.54% and 13.29% and 15.04% and 19.29% and 14.53% and 19.54%. For the same compound, the “% Recovered Dose - Feces per Day” value (group M, feces day 3, Day 11 necropsy) was 4.32% and 6.13% and 4.17% and 2.65% and 4.16% and 6.33% and 4.24% and 3.82%, the “% Recovered Dose - Feces per Day” value (group M, feces day 4, Day 11 necropsy) was 3.42% and 4.94% and 4.01% and 4.02% and 6.06% and 4.40% and 3.22% and 2.93% and the “% Recovered Dose - Feces per Day” value (group M, feces day 5, Day 11 necropsy) was 1.00% and 2.50% and 1.52% and 1.62% and 1.76% and 1.90% and 1.20% and 1.08%. The “% Recovered Dose - Feces per Day” value (group M, feces day 6, Day 11 necropsy) was 10.71% and 2.32% and 2.47% and 1.70% and 3.63% and 2.41% and 1.58% and 1.99%, the “% Recovered Dose - Feces per Day” value (group M, feces day 7, Day 11 necropsy) was 5.02% and 2.31% and 1.09% and 1.15% and 1.51% and 1.35% and 0.86% and 1.01% and the “% Recovered Dose - Feces per Day” value (group M, feces day 8, Day 11 necropsy) was 1.81% and 1.55% and 1.22% and 0.94% and 1.24% and 2.07% and 0.87% and 1.10%. The “% Recovered Dose - Feces per Day” value (group M, feces day 9, Day 11 necropsy) was 1.01% and 1.12% and 0.73% and 0.57% and 0.96% and 0.64% and 0.76%, the “% Recovered Dose - Feces per Day” value (group M, feces day 10, Day 11 necropsy) was 0.48% and 0.47% and 0.92% and 0.59% and 0.65% and 1.22% and 0.76% and 0.85% and the “% Recovered Dose - Feces per Day” value (group M, feces day 11, Day 11 necropsy) was 0.57% and 0.46% and 0.82% and 0.41% and 0.70% and 1.12% and 0.68% and 1.01%. For the same compound, the “increase in total 238Pu excretion compared to the control groups” value (male, 6 daily oral treatments, 600 μmol/kg, 11 days post-contamination) was “up to 156%”, the “tissue content of 238Pu compared to saline control group” value (male, all analyzed tissues, all dosing regimens) was “large reductions” and the “full body content of 238Pu compared to saline control groups” value (male, all treated groups) was “significant reductions”. For the same compound, the “decrease in body burden compared to the control groups” value (male, once-daily oral 600 μmol/kg, 11 days post-contamination) was “up to 48%”, the “decorporation efficacy relative to parenteral DTPA” value (male, oral once-daily 300 and 600 μmol/kg) was “equivalent to that of parenteral treatment with DTPA” and the 238Pu elimination enhancement (male, oral twice-daily 150 and 300 μmol/kg or once-daily 300 and 600 μmol/kg, 7 days post-contamination) was “significant”.
